Legend:
AR protein = biological target: T1, AR protein (Homo sapiens, UniProt P10275); experiment: AR protein degradation in VCaP cells (Western blot); type: cell-based; conditions: 8h
T1 construct: host or cells: VCaP
T1 sequence (P10275 1-920): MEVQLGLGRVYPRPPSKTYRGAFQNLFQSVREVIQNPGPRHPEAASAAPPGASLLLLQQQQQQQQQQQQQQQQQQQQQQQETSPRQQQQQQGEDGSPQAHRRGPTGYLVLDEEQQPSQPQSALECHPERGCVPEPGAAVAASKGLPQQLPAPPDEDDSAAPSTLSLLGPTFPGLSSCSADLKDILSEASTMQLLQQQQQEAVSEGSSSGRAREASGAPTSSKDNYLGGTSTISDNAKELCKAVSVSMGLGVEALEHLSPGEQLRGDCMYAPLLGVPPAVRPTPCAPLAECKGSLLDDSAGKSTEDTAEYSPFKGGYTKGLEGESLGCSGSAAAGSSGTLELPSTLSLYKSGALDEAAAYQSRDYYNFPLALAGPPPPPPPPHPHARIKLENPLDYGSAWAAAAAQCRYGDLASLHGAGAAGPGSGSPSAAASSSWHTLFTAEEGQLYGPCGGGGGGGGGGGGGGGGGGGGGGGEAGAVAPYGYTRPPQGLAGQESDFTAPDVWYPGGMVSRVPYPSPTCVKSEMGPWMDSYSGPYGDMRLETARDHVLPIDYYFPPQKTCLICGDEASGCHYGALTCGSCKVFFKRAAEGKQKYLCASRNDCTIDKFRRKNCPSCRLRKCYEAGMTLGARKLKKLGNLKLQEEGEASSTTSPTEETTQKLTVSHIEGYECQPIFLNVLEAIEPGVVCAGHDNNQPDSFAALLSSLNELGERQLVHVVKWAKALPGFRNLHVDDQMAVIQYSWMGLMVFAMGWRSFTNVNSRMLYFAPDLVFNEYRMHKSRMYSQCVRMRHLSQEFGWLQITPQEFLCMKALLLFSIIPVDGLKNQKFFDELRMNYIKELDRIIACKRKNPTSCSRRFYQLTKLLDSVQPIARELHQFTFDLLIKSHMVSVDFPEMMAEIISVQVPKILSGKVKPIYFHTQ
How it was run: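 AR-positive VCaP human prostate cancer cells grown in DMEM with 10% FBS were plated in six-well plates at 3×10^5 cells/well and incubated overnight. Compounds were then added at 1 µL/well alongside a solvent control and incubated for 8h. Lysates in RIPA buffer with protease inhibitor were quantified by BCA and run by SDS-PAGE. AR was detected by Western blot, and degradation was calculated from band grayscale normalized to GAPDH.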

VCaP cells = experiment: Inhibition of VCaP cell proliferation (WST-8); type: cell-based; conditions: Homo sapiens, 168 hours
How it was run: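 Proliferation was read on day 9 as WST-8 absorbance at 450 nm after VCaP cells (15,000/well, DMEM/10% FBS, 37°C) were exposed from day 2 to compound at 9 points, 5-fold serial dilution, top final concentration 10 µM.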

| SMILES | AR protein degradation rate at fixed concentration (%) at 0.0005 µM (AR protein; 0.5 nM) [%] | AR protein degradation rate at fixed concentration (%) at 0.005 µM (AR protein; 5 nM) [%] | IC50 (VCaP cells) [nM] | Degradation rate of AR protein in VCaP cells (AR protein; 0.5 nM) [%] | Degradation rate of AR protein in VCaP cells (AR protein; 5 nM) [%] |
| --- | --- | --- | --- | --- | --- |
| C[C@H]1CC2(CCN(c3ccc(N4CCC(CN5CCC6(CC5)COc5ccc7c(c56)n(C)c(=O)n7C5CCC(=O)NC5=O)CC4)cc3)CC2)CN1c1ccc(C#N)c(Cl)c1 (stereo partly drawn) [A-P-26, 2-chloro-4-((3 S)-8-(4-(4-((3-((2,6-dioxopiperidin-3-yl))-1-methyl-2-oxo-2,3-dihydro-1H,7H-spiro[benzofuro[4,5-d]imidazole-8,4'-piperidin]-1'-yl)methyl)piperidin-1-yl)phenyl)-3-methyl-2,8-diazaspiro[4.5]decan-2-yl)benzonitrile] | -43 | 18 | 34 |  |  |
| Cn1c(=O)n(C2CCC(=O)NC2=O)c2ccc3c(c21)OCC31CCN(C2CCN(c3ccc(C(=O)N[C@H]4CC[C@H](Oc5ccc(C#N)c(Cl)c5)CC4)nn3)CC2)CC1 (stereo partly drawn) [A-P-23] | 85 | 74 | 0.046 |  |  |
| C[C@H]1CC2(CCN(c3ccc(C(=O)N4CCC(CN5CCC6(CCc7cc(C(=O)N[C@H]8CCC(=O)NC8=O)c(F)cc7O6)CC5)CC4)cc3)CC2)CN1c1ccc(C#N)c(Cl)c1 [A-P-35, 1'-((1-(4-((S)-2-(3-chloro-4-cyanophenyl)-3-methyl-2,8-diazaspiro[4.5]decan-8-yl)benzoyl)piperidin-4-yl)methyl)-N-((S)-2,6-dioxopiperidin-3-yl)-7-fluorospiro[chroman-2,4'-piperidin]-6-carboxamide] | 9 | 18 | 4 |  |  |
| COc1cc(O[C@H]2C(C)(C)[C@H](NC(=O)c3ccc(N4CCC(C)(CN5CCC6(CCc7cc(C(=O)N[C@H]8CCC(=O)NC8=O)c(F)cc7O6)CC5)CC4)nn3)C2(C)C)ccc1C#N [A-P-48, 1'-((1-(6-(((1R,3R)-3-(4-cyano-3-methoxyphenoxy)-2,2,4,4-tetramethylcyclobutyl)carbamoyl)pyridazin-3-yl)-4-methylpiperidin-4-yl)methyl)-N-((S)-2,6-dioxopiperidin-3-yl)-7-fluorospiro[chroman-2,4'-piperidin]-6-carboxamide] |  |  | 330 | -23 | -1 |
| COc1cc(O[C@H]2C(C)(C)[C@H](NC(=O)c3ccc(N4CCC(F)(CN5CC6(CCC7(CC6)COc6c7ccc7c6CN(C6CCC(=O)NC6=O)C7=O)C5)CC4)cc3)C2(C)C)ccc1C#N (relative stereo) [A-P-5] |  |  | 1.7 | 38 | 73 |
| Cn1c(=O)n(C2CCC(=O)NC2=O)c2ccc3c(c21)OCC31CCN(CC2CCN(c3ccc(C(=O)N[C@H]4CC[C@H](Oc5ccc(C#N)c(Cl)c5)CC4)nn3)CC2)CC1 (stereo partly drawn) [A-P-24] | 85 | 85 | 0.0081 |  |  |
| COc1cc(O[C@H]2C(C)(C)[C@H](NC(=O)c3ccc(N4CCC5(CC4)CC(N4CCC6(CC4)COc4cc7c(cc46)n(C)c(=O)n7C4CCC(=O)NC4=O)C5)nn3)C2(C)C)ccc1C#N (relative stereo) [A-P-14, N-((1r,3r)-3-(4-cyano-3-methoxyphenoxy)-2,2,4,4-tetramethylcyclobutyl)-6-(2-(3-(2,6-dioxopiperidin-3-yl)-1-methyl-2-oxo-2,3-dihydro-1H,6H-spiro[benzofuro[5,6-d]imidazole-7,4'-piperidin]-1'-yl)-7-azaspiro[3.5]nonan-7-yl)pyridazine-3-carboxamide] |  |  | 2.2 | 63 | 82 |
| Cn1c(=O)n(C2CCC(=O)NC2=O)c2cc3c(cc21)C1(CCN(CC2CCN(c4ccc(C(=O)N[C@H]5CC[C@H](Oc6ccc(C#N)c(Cl)c6)CC5)nn4)CC2)CC1)CO3 (stereo partly drawn) [A-P-10] | 75 | 78 | 6 |  |  |
| CC1(C)[C@H](NC(=O)c2ccc(N3CCC(CN4CCC5(CCc6cc(C(=O)N[C@H]7CCC(=O)NC7=O)c(F)cc6O5)CC4)CC3)nc2)C(C)(C)[C@H]1Oc1ccc(C#N)c(C(F)(F)F)c1 [A-P-45, 1'-((1-(5-(((1R,3R)-3-(4-cyano-3-(trifluoromethyl)phenoxy)-2,2,4,4-tetramethylcyclobutyl)carbamoyl)pyridin-2-yl)piperidin-4-yl)methyl)-N-((S)-2,6-dioxopiperidin-3-yl)-7-fluorospiro[chroman-2,4'-piperidin]-6-carboxamide] |  |  | 300 | 44 | 77 |
| COc1cc(O[C@H]2C(C)(C)[C@H](NC(=O)c3ccc(N4CCC(F)(CN5CCC6(CC5)COc5c6ccc(C(=O)N[C@H]6CCC(=O)NC6=O)c5F)CC4)cc3)C2(C)C)ccc1C#N [A-P-84] |  |  | 490 | -14 | -17 |
| N#Cc1ccc(O[C@H]2CC[C@H](NC(=O)c3ccc(N4CCC(N5CC6(CCC7(CC6)COc6c7ccc7c6CN(C6CCC(=O)NC6=O)C7=O)C5)CC4)nn3)CC2)cc1Cl (relative stereo) [A-P-1, N-((1r,4r)-4-(3-chloro-4-cyanophenoxy)cyclohexyl)-6-(4-(7'-(2,6-dioxopiperidin-3-yl)-6'-oxo-7',8'-dihydro-2'-H,6'-H-dihydro[azetidine-3,1'-cyclohexane-4',3"-furo[2,3-e]isoindol]-1-yl)piperidin-1-yl)pyridazine-3-carboxamide] |  |  | 0.026 | 69 | 82 |
| COc1cc(O[C@H]2C(C)(C)[C@H](NC(=O)c3ccc(N4CCC(C)(CN5CCC6(CCc7cc(C(=O)N[C@H]8CCC(=O)NC8=O)c(F)cc7O6)CC5)CC4)nc3)C2(C)C)ccc1C#N [A-P-49, 1'-((1-(5-(((1R,3R)-3-(4-cyano-3-methoxyphenoxy)-2,2,4,4-tetramethylcyclobutyl)carbamoyl)pyridin-2-yl)-4-methylpiperidin-4-yl)methyl)-N-((S)-2,6-dioxopiperidin-3-yl)-7-fluorospiro[chroman-2,4'-piperidin]-6-carboxamide] |  |  | 41 | -15 | 45 |
| COc1cc(O[C@H]2C(C)(C)[C@H](NC(=O)c3ccc(N4CCC(CN5CCC6(CCc7cc(C(=O)N[C@H]8CCC(=O)NC8=O)c(F)cc7O6)CC5)CC4)nn3)C2(C)C)ccc1C#N [A-P-34, 1'-((1-(6-(((1R,3R)-3-(4-cyano-3-methoxyphenoxy)-2,2,4,4-tetramethylcyclobutyl)carbamoyl)pyridazin-3-yl)piperidin-4-yl)methyl)-N-((S)-2,6-dioxopiperidin-3-yl)-7-fluorospiro[chroman-2,4'-piperidin]-6-carboxamide] |  |  | 0.29 | 0 | 47 |
| COc1cc(O[C@H]2C(C)(C)[C@H](NC(=O)c3ccc(N4CCC(CN5CCN6c7ccc(N[C@H]8CCC(=O)NC8=O)cc7OC[C@@H]6C5)CC4)cc3)C2(C)C)ccc1C#N [A-P-100] |  |  | 4700 | -20 | 21 |
| COc1cc(O[C@H]2C(C)(C)[C@H](NC(=O)c3ccc(N4CCC(C)(CN5CCC6(CC5)COc5cc7c(cc56)n(C)c(=O)n7C5CCC(=O)NC5=O)CC4)cc3)C2(C)C)ccc1C#N (relative stereo) [A-P-16] |  |  | 1 | 66 | 83 |

Source: patent EP4722219A1 (Gan & Lee Pharmaceuticals Co., Ltd., priority 2023, dated 2024)
